# Experimental data from ChEMBL document CHEMBL4725455, “Use of Dihydroorotate Dehydrogenase Inhibitors for Treatment of Autoimmune Diseases and Cancer” (ACS Med Chem Lett, 2020).
# Target: Dihydroorotate dehydrogenase (quinone), mitochondrial (Homo sapiens, UniProt Q02127)
# Assay: Inhibition of DHODH (unknown origin) using L-dihydroorotic acid as substrate preincubated for 30 mins followed by substrate addition measured every 10 mins in presence of decylubiquinone by DCIP dye based coupled enzyme assay
# Sequence of Dihydroorotate dehydrogenase (quinone), mitochondrial (Q02127 whole entry): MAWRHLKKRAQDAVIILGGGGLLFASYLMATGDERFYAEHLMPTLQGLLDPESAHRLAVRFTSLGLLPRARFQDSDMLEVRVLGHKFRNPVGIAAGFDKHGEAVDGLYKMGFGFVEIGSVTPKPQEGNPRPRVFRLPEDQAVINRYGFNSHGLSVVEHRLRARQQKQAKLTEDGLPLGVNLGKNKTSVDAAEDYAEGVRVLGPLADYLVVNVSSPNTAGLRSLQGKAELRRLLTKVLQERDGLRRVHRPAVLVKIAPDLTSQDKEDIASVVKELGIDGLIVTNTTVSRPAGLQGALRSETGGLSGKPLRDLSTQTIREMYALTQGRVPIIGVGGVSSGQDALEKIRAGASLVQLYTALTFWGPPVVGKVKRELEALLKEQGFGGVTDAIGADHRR
row,IC50 [nM],Structure (SMILES)
1,1,Cc1nc2c(C(=O)O)cc(-c3c(F)c(F)c(-c4ccc(CN5CCCC(F)(F)C5)cc4)c(F)c3F)cc2[nH]1
2,1,Cc1nc2c(C(=O)O)cc(-c3c(F)c(F)c(-c4ccccc4)c(F)c3F)cc2[nH]1
3,10,Cc1nc2c(C(=O)O)cc(-c3c(F)c(F)c(-c4ccc(CN5CCOCC5)cc4)c(F)c3F)cc2[nH]1

# The remaining lines, values behind:
row,Structure (SMILES),IC50 [nM]
1,Cc1nc2c(C(=O)O)cc(-c3ccc(-c4ccccc4)cc3)cc2[nH]1,10
2,Cc1nc2c(C(=O)O)cc(-c3ccc(-n4c(C)ccc4C)cc3)cc2[nH]1,1
3,Cc1nc2c(C(=O)O)cc(-c3ccc(-c4ccccc4CN4CCCC4)cc3)cc2[nH]1,1
4,Cc1nc2c(C(=O)O)cc(-c3ccc(-c4ccc(O)cc4)cc3)cc2[nH]1,10
5,Cc1cccc(-c2ccc(-c3cc(C(=O)O)c4nc(C)[nH]c4c3)cc2)c1,1
